Data: patent publication US20080262088A1, “METHODS, COMPOUNDS, AND COMPOSITIONS FOR TREATING METABOLIC DISORDERS AND DIABETES” (priority 2006, published 2008)

What was measured:
[1] = system: patients with AA amyloidosis; conditions: previously tested clinically in patients with AA amyloidosis; cited from earlier work
[2] = system: Zucker Diabetic Fatty rat (ZDF); experiment: In vivo preventive study of renal function and metabolic status in ZDF rats (serum/urine chemistry, body and organ weights)
Excerpt: The compound 1,3 Propanedisulfonic Acid Disodium Salt (PDS) was selected for a preventive study of renal function in the Zucker rat (ZDF) model as well as its effect on metabolic status and diabetes.
A leading study model for DN is the inbred Zucker Diabetic Fatty rat (ZDF). Given a diabetogenic diet, the ZDF rat will closely mimic human adult onset diabetes (Type 2) and related complications including glomerulosclerosis and renal damage earlier than when fed a normal diet (i.e. 14-18 weeks of age). In addition, obesity, mild hypertension, hypertriglyceridemia, hypercholesterolemia, fasting hyperglycemia, impaired glucose tolerance and hyperinsulinemia, are all major phenotypes featured in the ZDF rat.
(§1) Thirty-two, 6 week-old male ZDF rats (Charles River, St. Constant, Canada) were randomized in 2 groups, Treated (PDS; in 1% sucrose drinking solution) and Control (1% sucrose drinking solution), and studied for a period of 12 weeks. […] All rats were fed a high fat/high sucrose diabetogenic diet (Harlan™ TD95217). Body weight, food and drinking solution consumption were measured on a daily basis. Twelve rats from each group were individually housed in metabolic cages for a period of 24 hours once a week. During week 2, 3, 4 and 5, rats placed in metabolic cages received drinking solution but were placed in fasting condition, whereas during weeks 1, […], 6 to 12, rats were given ad libitum access to food and drinking solution. At the end of each metabolic cage session, urine output was measured, and blood and urine samples were collected in order to quantify serum and/or urine levels of PDS, creatinine, protein, uric acid, triglycerides, glucose, and electrolytes. These variables were used to calculate creatinine clearance (Ccr) and proteinuria, and to evaluate general metabolic and renal health status. At the end of the study, the animals were sacrificed and selected organs were kept for further analysis (e.g. weighing, histology).
This pre-clinical investigation evaluates the role and efficacy of compound 1,3-Propanedisulfonic Acid Disodium Salt (PDS) (Eprodisate Disodium) as a preventive treatment for DN and related pathophysiology in the ZDF rat model. The primary measured outcome is the attenuation/reversal of creatinine clearance deterioration and of proteinuria. The secondary measured outcome is the impact on the metabolic status in this model.
Results for each time point are represented as median or mean ± SEM. Trend statistics are calculated by two-way ANOVA with or without repeated measures, with p<0.05 considered statistically significant.

[3] = system: Zucker Diabetic Fatty rat (ZDF); experiment: Kidney histology (glomerular global score) in ZDF rats; type: in vivo; conditions: after 12 weeks
Excerpt: FIG. 7 is a bar graph showing glomerular global score for control and treated satient Zucker diabetic obese male rats after 12 weeks, according to Example 11(a). Categories: (−) no global score; (±) mild global score; (+) mild to moderate global score; (++) moderate global score.
(§2) Thirty-two, 6 week-old male ZDF rats (Charles River, St. Constant, Canada) were randomized in 2 groups, Treated (PDS; in 1% sucrose drinking solution) and Control (1% sucrose drinking solution), and studied for a period of 12 weeks. […] All rats were fed a high fat/high sucrose diabetogenic diet (Harlan™ TD95217). Body weight, food and drinking solution consumption were measured on a daily basis. Twelve rats from each group were individually housed in metabolic cages for a period of 24 hours once a week. […] At the end of each metabolic cage session, urine output was measured, and blood and urine samples were collected in order to quantify serum and/or urine levels of PDS, creatinine, protein, uric acid, triglycerides, glucose, and electrolytes. […]
Histology was performed on both controls and PDS-treated animals. […] The global score was calculated by summing up the number of observations for each histological parameter (mesangial matrix expansion, glomerular cell proliferation, basement membrane thickening, and glomerular enlargement). […]

[4] = system: Zucker Diabetic Fatty rat (ZDF); experiment: Effect on pancreatic function in ZDF rats (satient insulin, glycemia, diuresis); type: in vivo
Procedure: as §1
As is known, diabetes may be due to a lack of insulin secretion (type I diabetes), or to a resistance of peripheral tissues to insulin action (more insulin is needed to decrease blood glucose to the same level as controls in the same amount of time; type II diabetes). The Zucker obese diabetic rat employed in this study is a model of insulin resistance. Hyperglycemia is almost always observed in this model, despite the initially very high circulating insulin levels that fall down with the progression of the disease due to pancreatic beta cell exhaustion. A beneficial treatment is expected to increase insulin secretion, decrease glucose levels by other means or increase glucose utilization by peripheral tissues.
Results for each time point are represented as median and mean ± SEM. Trend statistics are calculated by two-way ANOVA with or without repeated measures, with p<0.05 considered statistically significant.

[5] = system: Zucker Diabetic Fatty rat (ZDF); experiment: Histology of the pancreas in ZDF rats (islets of Langerhans per field); type: in vivo; conditions: week 12, significant difference, FIG. 11
Excerpt: FIG. 11 is a box graph showing distribution of number of islets of Langerhans per field counted during histology of the pancreas from control and treated Zucker diabetic obese male rats at week 12, according to Example 11(b). Box plot lower limit represents the 25th percentile, whereas higher limit represents 75th percentile. Whiskers above and below indicate 90th and 10th percentiles, and median and mean values are represented by solid and dashed lines respectively.
as §2

[6] = system: Peroxisome proliferator-activated receptor gamma (PPARG); experiment: Kidney gene expression, Gene Chip Rat Exon 1.0 ST Array; type: in vivo; conditions: pooled whole kidney RNA, treated vs controls
Procedure: The effect of the PDS treatment on kidney gene expression was also measured. Briefly, whole kidney RNA was isolated and pooled from 2-4 individual rats from each group (controls and treated group). The polled RNA was then processed using a Gene Chip Rat Exon 1.0 ST Array™ (Affimetrix) according to the manufacturer's standard procedure and analyzed for differential expression between the two groups on gene and exon levels. […] PPARG is a well known transcriptional regulator that regulates lipid, glucose and amino acid metabolism, and this receptor is the main target of the thiazolidinediones used in diabetes mellitus and other diseases that feature insulin resistance.

[7] = system: SHR rats; experiment: In vivo preventive study of pancreatic function in SHR rats (streptozotocine, OGTT); parameters: species or system rat; conditions: low dose streptozotocine after initiation of treatment, PDS vs vehicle
Procedure: SHR rats are non-diabetic rats but having insulin resistance. Rats are divided in two groups which are administered PDS or vehicle respectively. After initiation of treatment, all rats are administered streptozotocine at low dose with the aim to chemically destroy a portion of Langerhans islets. Both treated and control rats are challenged by an Oral Glucose Tolerance Test (OGTT) and glucose levels are measured.

[8] = end of 12-week study, not shown

For O=S(=O)(O)CCCS(=O)(=O)O [1,3-propanedisulfonic acid], the safety in humans [1] is listed as “can be safely used in humans”.

For O=S(=O)([O-])CCCS(=O)(=O)[O-].[Na+].[Na+] [PDS, 1,3 Propanedisulfonic Acid Disodium Salt], the “creatinine clearance (body weight corrected), treated vs control” value ([2]; 12 weeks of treatment, FIG. 2B, slight tendency to be higher weeks 6-8) was “no significant difference”, the “clearance of uric acid, treated vs control” value ([2]; FIG. 4B, body weight corrected) was “better in treated animals” and the “proteinuria (urine protein content), treated vs control” value ([2]; after 8 weeks measurable effect, difference significant at weeks ten and twelve, FIG. 3) was “lesser proteinuria”. For the same molecule, the “kidney size, treated vs controls” value ([2]; end of 12-week study) was “tended to be smaller”, the “heart weight/BW ratio, treated vs control” value [2, 8] was “no significant difference” and the “kidney weight/BW ratio, treated vs control” value [2, 8] was “no significant difference”. For the same molecule, the “pancreas weight/BW ratio, treated vs control” value [2, 8] was “no significant difference”, the “serum triglycerides, PDS-treated vs controls” value ([2]; from onset of treatment throughout the study, p=0.002, FIG. 6A) was “consistently lower” and the “adverse effect at the beginning of the study (little decline in body weight)” value ([2]; higher concentration of PDS, week 1 (avg 4270 mg/kg/day)) was “diarrhea”. The “bodyweight of the treated vs. the control animals” value ([2]; male ZDF rats, PDS in 1% sucrose drinking solution, 12 weeks, data not shown) was “not significant difference”, the “serum creatinine, treated vs control” value ([2]; satient ZDF rats, 12 weeks, FIG. 2A, stable in both groups) was “tendency for lower values between treatment weeks 6 and 9” and the “hyperkalemia (serum potassium), control vs treated” value ([2]; starting at week 7, weeks 8 to 12, p<0.001, FIG. 5) was “significantly more severe in the control group”. The “serum cholesterol, PDS-treated vs control” value ([2]; treatment week 10, FIG. 6B) was “significantly lower”, the serum cholesterol ([2]; week 12, control 7.1 mmol/L, p<0.001) was 4.5 mmol/L and the “uric acid levels in serum, control group relative to PDS-treated animals” value ([2]; weeks 6 to 12, FIG. 4A) was “consistently higher than values from the PDS-treated animals”. For the same molecule, the “glomerular global score (histology)” value ([3]; p=0.001, FIG. 7, sum of mesangial matrix expansion, glomerular cell proliferation, basement membrane thickening, glomerular enlargement) was “lowest scores”, the “kidney pathology (histology), treated vs control” value ([3]; not shown separately) was “less pathology” and the “glycemia, serum glucose by hexokinase (HK) II method, PDS-treated vs control” value ([4]; by week 10, p<0.001, FIG. 9A) was “significantly lower”. For the same molecule, the “glycemia, capillary blood glucose by glucose meter kit, PDS-treated vs control” value ([4]; by week 10, p=0.002, FIG. 9B) was “significantly lower”, the “satient serum insulin (RIA), PDS-treated vs control” value ([4]; end of the experiment (12 weeks), fed animals, FIG. 8) was “more than twice as high” and the “diuresis (urine production), PDS-treated vs control” value ([4]; from week 9, FIG. 10) was “lower”. For the same molecule, the “number of islets of Langerhans per field, treated vs controls” value [5] was “higher number”, the “PPARG gene expression in kidney, increase in treatment group” value [6] was 1.85 fold and the “number of genes down regulated in the treatment group” value ([6]; not shown) was 43 genes. For the same molecule, the “number of genes up regulated in the treatment group” value ([6]; not shown) was 75 genes and the “glucose levels after Oral Glucose Tolerance Test (OGTT)” value [7] was “lower glucose levels than control”.
